Laboratory results from patent publication US10974064B2, “Optogenetic control of behavioral state” (The Board of Trustees of the Leland Stanford Junior …, priority 2013, dated 2021).

What was measured:
[1] = tested on: adBNST neurons; test: Calcium imaging (OGB-1) of persistent activity in adBNST slice after electrical stimulation; format: cell-based, mice; details: 100 μM APV, then 10 μM NBQX added; N (all cells) 277 for APV, 279 for NBQX + APV
[2] = tested on: adBNST neurons; test: Ex vivo slice voltage-clamp recording of light-evoked EPSCs and IPSCs (ChR2 in BLA afferents); format: cell-based, mice; details: bath application 100 μM picrotoxin; n=4
Protocol: For slice physiology in combination with optogenetics, 3-4 week old male wild-type mice were injected with AAV-CaMKIIa::ChR2-eYFP into the BLA, or male Drd1a-Cre mice were injected with AAV-EFla::DIO-ChR2(H134R)-eYFP into the ovBNST. After a month, acute 300 μm coronal slices were obtained by transcardially perfusing ice-cold sucrose cutting solution (in mM; 11 D-glucose, 234 sucrose, 2.5 KCl, 1.25 NaH2PO4, 10 MgSO4, 0.5 CaCl2, 26 NaHCO3) and slicing in the same solution using a vibratome (VT1000S; Leica, Buffalo Grove, Ill., USA). Slices were recovered in oxygenated artificial cerebrospinal fluid (aCSF; in mM, 123 NaCl, 26 NaHCO3, 3 KCl, 1.25 NaH2PO4, 1 MgCl2, 2 CaCl2, and 11 glucose) at 32° C. for one hour. […]
For the blue light delivery, light was emitted from a 300 W broad-wavelength xenon lamp source (DG-4, Sutter Instruments, Novato, Calif., USA), band-pass filtered at 470±20 nm (Semrock; Rochester, N.Y., USA), passed through additional neutral density filters (ThorLabs; Newton, N.J., USA) and coupled to the fluorescence port of the microscope. […]
Voltage-clamp recordings were made at both −70 mV to isolate EPSCs, and at 0 mV to isolate IPSCs. […] Currents were filtered at 2 kHz, digitized at 50 kHz, and recorded to disk using pClamp10 software (Molecular Devices). […]

Q: How did the “N (number of cells activated after stimulation)” value [1] turn out when `NC(CCCP(=O)(O)O)C(=O)O` (centres unmarked) [APV, 2-amino-5-phosphonopentanoic acid] was run?
A: 61

Q: How did the “light-evoked IPSCs” value [2] turn out when picrotoxin was run?
A: blocked
